Measurements from patent US20240016795A1, “BROMODOMAIN INHIBITORS FOR ANDROGEN RECEPTOR-DRIVEN CANCERS” (FORMA Therapeutics, Inc., priority 2020, published 2024).
“And” between values parts separate entries of the source, which are not always exact repeats. Equal entries are not always repeated. Where two headings read alike, the source gives them in different places.

Legend:
p300 bromodomain = p300 bromodomain (Homo sapiens (Human), UniProt Q09472); assay: Time-resolved fluorescence biochemical assay, p300; assay type: binding; details: GST fusion of the p300 bromodomain
Chain of p300 bromodomain (Q09472 1049-1156): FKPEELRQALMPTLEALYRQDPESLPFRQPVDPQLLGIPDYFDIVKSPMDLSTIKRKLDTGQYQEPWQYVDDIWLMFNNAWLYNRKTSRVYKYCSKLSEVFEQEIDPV
Source text: Data is fitted using the Levenburg Marquardt algorithm. […] Data is fitted using the Levenburg Marquardt algorithm.

[1] = tested on: human kinases and disease-relevant mutant variants; assay: KINOMEscan screen; assay type: binding
CAMA1 = assay: 10-day CellTiter-Glo antiproliferative assay, CAMA1; assay type: cell-based; details: Homo sapiens, CAMA-1, 240 h, 10-day exposure, AR High, ER +, Her2 −
Procedure: (§1) Breast cell lines were cultured according to the distributor's recommendations. The following day, cells were exposed to compounds up to 10 days. Cell viability was assessed using a CellTiter-Glo® assay (Promega) at the end of the incubation period. The growth inhibitory effect was assessed by the concentration inhibiting growth by 50% using a nonlinear regression equation and a variable slope (Graphpad Prism). The mRNA expression levels for the androgen receptor (HUGO: AR) was determined from the DepMap Portal database (release 19Q2).

HCC1500 = assay: 10-day CellTiter-Glo antiproliferative assay, HCC1500; assay type: cell-based; details: HCC1500, 240 h, 10-day exposure, AR High, ER +, Her2 −
Procedure: as §1

BT549 = assay: 10-day CellTiter-Glo antiproliferative assay, BT549; assay type: cell-based; details: Homo sapiens, BT-549, 240 h, 10-day exposure, AR Low, ER −, Her2 −
Procedure: as §1

MDA-MB-231 = assay: 10-day CellTiter-Glo antiproliferative assay, MDA-MB-231; assay type: cell-based; details: Homo sapiens, MDA-MB-231, 240 h, 10-day exposure, AR Low, ER −, Her2 −
Procedure: as §1

LNCaP = assay: 10-day prostate cancer cell proliferation assay, LNCaP; assay type: cell-based; details: Homo sapiens, LNCaP, 240 h; 10 days exposure; T878A/WT, androgen-dependent
Procedure: (§2) Prostate cell lines were obtained from ATCC or DSMZ and cultured according to the distributor's recommendations. Prostate cancer cells were plated and incubated overnight. […] Cell viability was assessed using a CellTiter-Glo® assay (Promega) after 10 days drug exposure. The growth inhibitory effect was assessed by the concentration inhibiting growth by 50% using a nonlinear regression equation and a variable slope (Graphpad Prism).

VCaP = assay: 10-day prostate cancer cell proliferation assay, VCaP; assay type: cell-based; details: Homo sapiens, VCaP, 240 h; 10 days exposure; WT, AR amplification, androgen-dependent
Procedure: as §2

22Rv1 = assay: 10-day prostate cancer cell proliferation assay, 22Rv1; assay type: cell-based; details: Homo sapiens, 22Rv1, 240 h
Procedure: as §2

PC-3 = assay: 10-day prostate cancer cell proliferation assay, PC-3; assay type: cell-based; details: Homo sapiens, PC-3, 240 h; 10 days exposure; AR negative
Procedure: as §2

[2] = tested on: AR+ prostate cancer cell lines (LnCaP, VCaP, 22Rv1); assay: 10-day proliferation assay, all AR+ prostate cancer cell lines; assay type: cell-based; details: 240 h; 10-day assay; read-out: growth inhibitory effect (IC50), all AR+ cell lines
Procedure: (§3) Two AR-negative prostate cancer cell lines DU145 and PC-3 were also evaluated.
as §2

[3] = tested on: AR-negative prostate cancer cell lines DU145 and PC-3; assay: 10-day proliferation assay, AR-negative prostate cancer cell lines; assay type: cell-based; details: 10-day assay
Procedure: as §3, §2

XBP1 = assay: Taqman gene expression in AR-positive breast cancer cells, XBP1; assay type: cell-based; details: 24 hours, read-out: IC50, XBP1 mRNA
Procedure: AR-positive breast cancer cells were exposed to increasing concentrations of compounds for 24 hours. RNA was extracted and gene expression measured using Taqman® assays for TMPRSS2 and XBP1.

KLK3 (PSA) [4] = assay: qPCR gene expression in VCaP, KLK3 (PSA); assay type: cell-based; details: Homo sapiens, 24 h
Procedure: (§4) RNA was extracted using Qiacube RNAeasy Mini (Qiagen). For all genes tested, the qPCR reactions were carried out in triplicate with 250 ng RNA per reaction and Taqman® primer-probes. GAPDH was used as a housekeeping gene.

TMPRSS2 = assay: qPCR gene expression in VCaP, TMPRSS2; assay type: cell-based; details: Homo sapiens, 24 h
Procedure: as §4

SPDEF [5] = assay: qPCR gene expression in VCaP, SPDEF; assay type: cell-based; details: Homo sapiens, 24 h
Procedure: as §4

MYC = assay: qPCR gene expression in VCaP, MYC; assay type: cell-based; details: Homo sapiens, 24 h
Procedure: as §4

KLK3 (PSA) [6] = assay: qPCR gene expression in 22Rv1, KLK3 (PSA); assay type: cell-based; details: Homo sapiens, 22Rv1, 24 h
Procedure: as §4

SPDEF [7] = assay: qPCR gene expression in 22Rv1, SPDEF; assay type: cell-based; details: Homo sapiens, 22Rv1, 24 h
Procedure: as §4

FKBP5 = assay: qPCR gene expression in 22Rv1, FKBP5; assay type: cell-based; details: Homo sapiens, 22Rv1, 24 h
Procedure: as §4

AR target genes [8] = assay: Reduction of AR target genes in VCaP cells; assay type: cell-based; details: Homo sapiens, 24 hr exposure
Procedure: as §4

AR target genes [9] = assay: Reduction of AR target genes in 22Rv1 cells; assay type: cell-based; details: Homo sapiens, 24 hr exposure
Procedure: as §4

AR = AR protein level by western blot in prostate cancer cells; assay type: cell-based
[10] = tested on: AR+ triple negative breast cancer xenograft; assay: AR+ triple negative breast cancer cell line derived xenograft; assay type: in vivo, NOD SCID mice; details: 50 mg/kg orally daily
Procedure: Briefly, AR-positive breast cancer tumor cells (1×107) were implanted subcutaneously in the flank of 6-8-week-old NOD SCID mice. Mice were randomized, and treatment started when mean tumor size reached 160 mm^3 (8 mice per cohort). […] Tumor volume (TV) was measured twice weekly by caliper and the tumor volume (mm^3) calculated as follows: TV=a×b×b/2, where “a” and “b” are long and short diameters of a tumor, respectively.
The average body weight loss was 3.7%.
The study was completed using methods analogous to those described in Example 7, above.
Three dosing cycles were completed for mice within these cohorts.
Mice in the 30 mg/kg cohort were dosed daily for three weeks.
Tumor volume was assessed at Day 14, Day 17, Day 21, Day 24, and Day 27 of the study.

[11] = tested on: patient-derived xenograft (PDX) model of AR+ prostate cancer sensitive to enzalutamide; assay: Patient-derived xenograft of prostate cancer sensitive to enzalutamide; assay type: in vivo, NOG mice; details: Compound 1 40 mg/kg/day, enzalutamide 20 mg/kg/day
Procedure: The antitumor activity was determined based by tumor volume during the course of the study.
Male NOG mice (6-8 weeks of age) were implanted with tumor fragments. When tumors reached an average tumor volume of 150-200 mm^3 animals were randomized into different cohort groups and dosing initiated on the same day (Day 0). Animals were weighed twice weekly.
[…] 11.

COC(=O)N1c2ccc3c(nc([C@H](O)c4cc(F)ccc4OC)n3[C@@H]3CCC[C@@H](C(=O)O)C3)c2CC[C@@H]1C [Compound 1, (1R,3R)-3-[(7S)-2-[(R)-(5-fluoro-2-methoxyphenyl)(hydroxy)methyl]-6-(methoxycarbonyl)-7-methyl-3H,6H,7H,8H,9H-imidazo[4,5-f]quinolin-3-yl]cyclohexane-1-carboxylic acid]
IC50 (p300 bromodomain): < 2 nM and ~1 nM
binding affinity for kinases [1]: no to low binding affinity
IC50 (CAMA1): < 0.2 µM
IC50 (HCC1500): 0.5 to 1 µM
IC50 (BT549): > 1 µM
IC50 (MDA-MB-231): > 1 µM
IC50 (LNCaP): > 1000 nM
IC50 (VCaP): 500 to 1000 nM
IC50 (22Rv1; 10-day assay, read-out: anti-proliferative effect (IC50), 22Rv1): 500 to 1000 nM
IC50 (22Rv1; 10 days exposure, H857Y/H857Y, AR v7+, androgen-independent, read-out: IC50, 22Rv1): 500 to 1000 nM
IC50 (PC-3): > 1000 nM
IC50 [2]: 500 to 1500 nM
antiproliferative effect, AR-negative cell lines [3]: inactive
IC50 (XBP1): < 100 nM
IC50 (KLK3 (PSA) [4]): 0.01 to 0.05 µM
IC50 (TMPRSS2): 0.01 to 0.05 µM
IC50 (SPDEF [5]): > 0.1 µM
IC50 (MYC): 0.05 to 0.1 µM
IC50 (KLK3 (PSA) [6]): 0.01 to 0.05 µM
IC50 (SPDEF [7]): > 0.1 µM
IC50 (FKBP5): > 0.1 µM
IC50 (AR target genes [8]): < 500 nM
IC50 (AR target genes [9]): < 500 nM
return of AR to baseline level following removal of compound (AR; 22Rv1, after a 24 hr exposure): ≤ 24 h
AR protein level (AR; androgen-independent and androgen-dependent prostate cancer cell lines, western blot): dose dependent reduction
average body weight loss [10]: 3.7%
tumor growth inhibition (TGI) ([10]; end of treatment, versus vehicle control): 104%
AR target gene SPDEF expression in tumor ([11]; four days): reduced
H3K27Ac in tumor ([11]; four days): reduction of H3K27Ac
TGI at the end of study ([11]; start of dosing to day 59): comparable
